Consider 15 compounds from ChEMBL document CHEMBL4813989, “Design, synthesis, and biological evaluation of nitroisoxazole-containing spiro[pyrrolidin-oxindole] derivatives as novel glutathione peroxidase 4/mouse double minute 2 dual inhibitors that inhibit breast adenocarcinoma cell proliferation” (Eur J Med Chem, 2021).

Molecules are shown by their SMILES. pIC50, pKi: −log10 of the molar value.

Chain of E3 ubiquitin-protein ligase Mdm2 (Q00987 whole entry): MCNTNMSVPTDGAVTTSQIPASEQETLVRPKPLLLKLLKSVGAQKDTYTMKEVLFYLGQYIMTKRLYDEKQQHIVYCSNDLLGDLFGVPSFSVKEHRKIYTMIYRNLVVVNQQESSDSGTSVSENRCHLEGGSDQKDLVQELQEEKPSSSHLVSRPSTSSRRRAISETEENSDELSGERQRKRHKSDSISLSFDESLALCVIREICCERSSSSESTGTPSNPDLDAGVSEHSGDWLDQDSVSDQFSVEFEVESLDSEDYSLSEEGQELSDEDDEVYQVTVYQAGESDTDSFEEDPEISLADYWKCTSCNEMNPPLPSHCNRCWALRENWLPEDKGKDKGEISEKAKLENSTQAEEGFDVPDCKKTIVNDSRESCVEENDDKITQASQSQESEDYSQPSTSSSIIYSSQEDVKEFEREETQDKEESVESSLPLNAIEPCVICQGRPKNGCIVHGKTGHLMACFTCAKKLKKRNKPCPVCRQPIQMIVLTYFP

The first data set relates to MCF7. Description: Antiproliferative activity against human MCF7 cells assessed as reduction in cell growth incubated for 48 hrs by CCK8 assay. The following applies: MCF7, 48 h. (In general: Tetrazolium dyes change colour on reduction, which living cells bring about.)
A word on the pIC50: it is the negative decadic logarithm of the IC50, by convention in mol/L. `Cc1noc([C@@H]2[C@@H](c3cccc(Br)c3)[C@H](C(F)(F)F)N[C@@]23C(=O)Nc2ccccc23)c1[N+](=O)[O-]`: the pIC50 was 5.64.

`Cc1noc([C@@H]2[C@@H](c3ccccc3)[C@H](C(F)(F)F)N[C@@]23C(=O)Nc2ccc(F)cc23)c1[N+](=O)[O-]`: the negative-log IC50 (pIC50) was 6.68.

As for `Cc1noc([C@@H]2[C@@H](c3ccc([N+](=O)[O-])cc3)[C@H](C(F)(F)F)N[C@@]23C(=O)Nc2ccccc23)c1[N+](=O)[O-]`, the negative logarithm of the IC50 (pIC50) is 5.27.

On to `Cc1ccccc1[C@H]1[C@H](C(F)(F)F)N[C@@]2(C(=O)Nc3ccccc32)[C@@H]1c1onc(C)c1[N+](=O)[O-]`, for which the pIC50 is 5.46.

`Cc1noc([C@@H]2C(c3ccco3)[C@H](C(F)(F)F)N[C@@]23C(=O)Nc2ccccc23)c1[N+](=O)[O-]` (single isomer, unassigned): the negative logarithm of the IC50 (pIC50) is 5.84.

Consider `Cc1noc([C@@H]2[C@@H](c3ccccc3)[C@H](C(F)(F)F)N[C@@]23C(=O)Nc2ccc(Br)cc23)c1[N+](=O)[O-]`, for which the negative logarithm of the IC50 (pIC50) is 6.26.

As to `Cc1noc([C@@H]2[C@@H](c3ccccc3)[C@H](C(F)(F)F)N[C@@]23C(=O)N(C)c2ccccc23)c1[N+](=O)[O-]`, the pIC50 is 5.45.

For the compound `COc1ccc([C@H]2[C@H](C(F)(F)F)N[C@@]3(C(=O)Nc4ccccc43)[C@@H]2c2onc(C)c2[N+](=O)[O-])cc1OC`, the negative logarithm of the IC50 (pIC50) was 5.38.

With `Cc1noc([C@@H]2[C@@H](c3cccc(F)c3)[C@H](C(F)(F)F)N[C@@]23C(=O)Nc2ccccc23)c1[N+](=O)[O-]`, the pIC50 was 6.06.

In the case of `Cc1noc([C@@H]2[C@@H](c3ccc(Br)cc3)[C@H](C(F)(F)F)N[C@@]23C(=O)Nc2ccccc23)c1[N+](=O)[O-]`, the negative logarithm of the IC50 (pIC50) was 5.52.

For `Cc1noc([C@@H]2[C@@H](c3ccc(Cl)cc3)[C@H](C(F)(F)F)N[C@@]23C(=O)Nc2ccccc23)c1[N+](=O)[O-]`, the pIC50 was 5.94.

For `Cc1noc([C@@H]2[C@@H](c3ccccc3)[C@H](c3ccccc3)N[C@@]23C(=O)Nc2ccccc23)c1[N+](=O)[O-]`, the negative-log IC50 (pIC50) was 5.28.

For `Cc1noc([C@@H]2[C@@H](c3ccccc3Cl)[C@H](C(F)(F)F)N[C@@]23C(=O)Nc2ccccc23)c1[N+](=O)[O-]`, the pIC50 is 5.42.

On to `Cc1noc([C@@H]2[C@@H](c3cccc4ccccc34)[C@H](C(F)(F)F)N[C@@]23C(=O)Nc2ccccc23)c1[N+](=O)[O-]`, for which the pIC50 is 5.14.

On to `Cc1ccc2c(c1)[C@]1(N[C@@H](C(F)(F)F)[C@H](c3ccccc3)[C@H]1c1onc(C)c1[N+](=O)[O-])C(=O)N2`, for which the negative logarithm of the IC50 (pIC50) was 5.31.

The next data set has as its system MCF-10A. The experiment in a line: Cytotoxicity against human MCF-10A cells assessed as reduction in cell viability incubated for 48 hrs by CCK8 assay. It is filed as cell-based.
Conditions: not given
Turning to `Cc1noc([C@@H]2[C@@H](c3cccc(Br)c3)[C@H](C(F)(F)F)N[C@@]23C(=O)Nc2ccccc23)c1[N+](=O)[O-]`, the Activity entry is given as “Non-Toxic”.

In the case of `Cc1noc([C@@H]2[C@@H](c3ccccc3)[C@H](C(F)(F)F)N[C@@]23C(=O)Nc2ccc(F)cc23)c1[N+](=O)[O-]`, the Activity result is recorded as “Non-Toxic”.

Turning to `Cc1noc([C@@H]2[C@@H](c3ccc([N+](=O)[O-])cc3)[C@H](C(F)(F)F)N[C@@]23C(=O)Nc2ccccc23)c1[N+](=O)[O-]`, the Activity entry was “Non-Toxic”.

Regarding `Cc1ccccc1[C@H]1[C@H](C(F)(F)F)N[C@@]2(C(=O)Nc3ccccc32)[C@@H]1c1onc(C)c1[N+](=O)[O-]`, the Activity entry is listed as “Non-Toxic”.

Regarding `Cc1noc([C@@H]2C(c3ccco3)[C@H](C(F)(F)F)N[C@@]23C(=O)Nc2ccccc23)c1[N+](=O)[O-]` (single isomer, unassigned), the Activity entry is on record as “Non-Toxic”.

Consider `Cc1noc([C@@H]2[C@@H](c3ccccc3)[C@H](C(F)(F)F)N[C@@]23C(=O)Nc2ccc(Br)cc23)c1[N+](=O)[O-]`, for which the Activity result is given as “Non-Toxic”.

With `Cc1noc([C@@H]2[C@@H](c3ccccc3)[C@H](C(F)(F)F)N[C@@]23C(=O)N(C)c2ccccc23)c1[N+](=O)[O-]`, the Activity result was “Non-Toxic”.

For the compound `COc1ccc([C@H]2[C@H](C(F)(F)F)N[C@@]3(C(=O)Nc4ccccc43)[C@@H]2c2onc(C)c2[N+](=O)[O-])cc1OC`, the Activity result is on record as “Non-Toxic”.

Turning to `Cc1noc([C@@H]2[C@@H](c3cccc(F)c3)[C@H](C(F)(F)F)N[C@@]23C(=O)Nc2ccccc23)c1[N+](=O)[O-]`, the Activity result is “Non-Toxic”.

In the case of `Cc1noc([C@@H]2[C@@H](c3ccc(Br)cc3)[C@H](C(F)(F)F)N[C@@]23C(=O)Nc2ccccc23)c1[N+](=O)[O-]`, the Activity result was “Non-Toxic”.

In the case of `Cc1noc([C@@H]2[C@@H](c3ccc(Cl)cc3)[C@H](C(F)(F)F)N[C@@]23C(=O)Nc2ccccc23)c1[N+](=O)[O-]`, the Activity entry is recorded as “Non-Toxic”.

With `Cc1noc([C@@H]2[C@@H](c3ccccc3)[C@H](c3ccccc3)N[C@@]23C(=O)Nc2ccccc23)c1[N+](=O)[O-]`, the Activity result was “Non-Toxic”.

As to `Cc1noc([C@@H]2[C@@H](c3ccccc3Cl)[C@H](C(F)(F)F)N[C@@]23C(=O)Nc2ccccc23)c1[N+](=O)[O-]`, the Activity result is “Non-Toxic”.

Regarding `Cc1noc([C@@H]2[C@@H](c3cccc4ccccc34)[C@H](C(F)(F)F)N[C@@]23C(=O)Nc2ccccc23)c1[N+](=O)[O-]`, the Activity result is reported as “Non-Toxic”.

As to `Cc1ccc2c(c1)[C@]1(N[C@@H](C(F)(F)F)[C@H](c3ccccc3)[C@H]1c1onc(C)c1[N+](=O)[O-])C(=O)N2`, the Activity result is listed as “Non-Toxic”.

The subject of the next data set is MCF7. The experiment in a line: Antiproliferative activity against human MCF7 cells assessed as reduction in cell growth incubated for 48 hrs in presence of Fer-1 by CCK8 assay. The following applies: MCF7, 48 h.
Take `Cc1noc([C@@H]2[C@@H](c3cccc(Br)c3)[C@H](C(F)(F)F)N[C@@]23C(=O)Nc2ccccc23)c1[N+](=O)[O-]`: the pIC50 was < 4.70.

Consider `Cc1noc([C@@H]2[C@@H](c3ccccc3)[C@H](C(F)(F)F)N[C@@]23C(=O)Nc2ccc(F)cc23)c1[N+](=O)[O-]`, for which the pIC50 was 4.81.

As to `Cc1noc([C@@H]2[C@@H](c3ccc([N+](=O)[O-])cc3)[C@H](C(F)(F)F)N[C@@]23C(=O)Nc2ccccc23)c1[N+](=O)[O-]`, the pIC50 was < 4.70.

Consider `Cc1ccccc1[C@H]1[C@H](C(F)(F)F)N[C@@]2(C(=O)Nc3ccccc32)[C@@H]1c1onc(C)c1[N+](=O)[O-]`, for which the pIC50 is < 4.70.

Turning to `Cc1noc([C@@H]2C(c3ccco3)[C@H](C(F)(F)F)N[C@@]23C(=O)Nc2ccccc23)c1[N+](=O)[O-]` (single isomer, unassigned), the negative logarithm of the IC50 (pIC50) is 4.84.

Turning to `Cc1noc([C@@H]2[C@@H](c3ccccc3)[C@H](C(F)(F)F)N[C@@]23C(=O)Nc2ccc(Br)cc23)c1[N+](=O)[O-]`, the pIC50 is 4.79.

With `Cc1noc([C@@H]2[C@@H](c3ccccc3)[C@H](C(F)(F)F)N[C@@]23C(=O)N(C)c2ccccc23)c1[N+](=O)[O-]`, the pIC50 is < 4.70.

Regarding `COc1ccc([C@H]2[C@H](C(F)(F)F)N[C@@]3(C(=O)Nc4ccccc43)[C@@H]2c2onc(C)c2[N+](=O)[O-])cc1OC`, the negative logarithm of the IC50 (pIC50) is < 4.70.

On to `Cc1noc([C@@H]2[C@@H](c3cccc(F)c3)[C@H](C(F)(F)F)N[C@@]23C(=O)Nc2ccccc23)c1[N+](=O)[O-]`, for which the negative logarithm of the IC50 (pIC50) is 4.81.

`Cc1noc([C@@H]2[C@@H](c3ccc(Br)cc3)[C@H](C(F)(F)F)N[C@@]23C(=O)Nc2ccccc23)c1[N+](=O)[O-]`: the pIC50 is 4.77.

As for `Cc1noc([C@@H]2[C@@H](c3ccc(Cl)cc3)[C@H](C(F)(F)F)N[C@@]23C(=O)Nc2ccccc23)c1[N+](=O)[O-]`, the pIC50 is < 4.70.

For `Cc1noc([C@@H]2[C@@H](c3ccccc3)[C@H](c3ccccc3)N[C@@]23C(=O)Nc2ccccc23)c1[N+](=O)[O-]`, the pIC50 was < 4.70.

As to `Cc1noc([C@@H]2[C@@H](c3ccccc3Cl)[C@H](C(F)(F)F)N[C@@]23C(=O)Nc2ccccc23)c1[N+](=O)[O-]`, the negative-log IC50 (pIC50) is < 4.70.

Take `Cc1noc([C@@H]2[C@@H](c3cccc4ccccc34)[C@H](C(F)(F)F)N[C@@]23C(=O)Nc2ccccc23)c1[N+](=O)[O-]`: the pIC50 is < 4.70.

As to `Cc1ccc2c(c1)[C@]1(N[C@@H](C(F)(F)F)[C@H](c3ccccc3)[C@H]1c1onc(C)c1[N+](=O)[O-])C(=O)N2`, the pIC50 is 4.74.

Another data set has as its target E3 ubiquitin-protein ligase Mdm2 (Homo sapiens, UniProt Q00987). Description: Inhibition of MDM2 (unknown origin) using peptide as substrate incubated for 30 mins by fluorescence polarization assay.
Conditions: not given
For orientation: In fluorescence polarisation assays a small probe gives low polarisation when free and higher when bound to something large.
As a reminder, the pKi is the negative decadic logarithm of the Ki, by convention in mol/L. Low values mean a high Ki, high ones a low Ki. For the compound `Cc1ccccc1[C@H]1[C@H](C(F)(F)F)N[C@@]2(C(=O)Nc3ccccc32)[C@@H]1c1onc(C)c1[N+](=O)[O-]`, the pKi is < 5.00.

For `Cc1noc([C@@H]2[C@@H](c3ccccc3)[C@H](C(F)(F)F)N[C@@]23C(=O)N(C)c2ccccc23)c1[N+](=O)[O-]`, the pKi was < 5.00.

As for `Cc1noc([C@@H]2[C@@H](c3ccccc3Cl)[C@H](C(F)(F)F)N[C@@]23C(=O)Nc2ccccc23)c1[N+](=O)[O-]`, the pKi was < 5.00.
